# Values joined by “and” are separate entries in the source; they are usually repeats but may differ in a detail not shown here. Equal values may be shown once. Records with an inconclusive call do not appear.
# System: Lewis lung carcinoma i.m., BDF1 mice, T/C %
# Assay: NCI In Vivo Anticancer Drug Screen. Data for tumor model Lewis Lung Carcinoma (intramuscular) in B6D2F1 (BDF1) mice
# In short: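 Transplantable tumour model; readout survival or tumour size; value = treated (T) / vehicle control (C).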
smiles,measurement,setting,value
C=CCNC(=O)NCC=C,T/C,"endpoint: mean tumor weight, dose: 6.25 mg/kg/injection, schedule: Q01DX011 (ip), vehicle: saline with Tween-80, higher = larger tumour",74 % of control
same,T/C,"endpoint: mean tumor weight, dose: 12.5 mg/kg/injection, schedule: Q01DX011 (ip), vehicle: saline with Tween-80, higher = larger tumour",69 % of control
same,T/C,"endpoint: mean tumor weight, dose: 25.0 mg/kg/injection, schedule: Q01DX011 (ip), vehicle: saline with Tween-80, higher = larger tumour",73 % of control
same,T/C,"endpoint: mean tumor weight, dose: 50.0 mg/kg/injection, schedule: Q01DX011 (ip), vehicle: saline with Tween-80, higher = larger tumour",76 % of control
same,T/C,"endpoint: mean tumor weight, dose: 100.0 mg/kg/injection, schedule: Q01DX011 (ip), vehicle: saline with Tween-80, higher = larger tumour",80 % of control
same,T/C,"endpoint: median survival time, dose: 6.25 mg/kg/injection, schedule: Q01DX011 (ip), vehicle: saline with Tween-80, higher = longer survival",113 % of control
same,T/C,"endpoint: median survival time, dose: 12.5 mg/kg/injection, schedule: Q01DX011 (ip), vehicle: saline with Tween-80, higher = longer survival",108 % of control
same,T/C,"endpoint: median survival time, dose: 25.0 mg/kg/injection, schedule: Q01DX011 (ip), vehicle: saline with Tween-80, higher = longer survival",113 % of control
same,T/C,"endpoint: median survival time, dose: 50.0 mg/kg/injection, schedule: Q01DX011 (ip), vehicle: saline with Tween-80, higher = longer survival",86 % of control
same,T/C,"endpoint: median survival time, dose: 100.0 mg/kg/injection, schedule: Q01DX011 (ip), vehicle: saline with Tween-80, higher = longer survival",100 % of control
CC[C@]1(O)C[C@H]2CN(CCc3c([nH]c4ccccc34)[C@@](C(=O)OC)(c3cc4c(cc3OC)N(C=O)[C@H]3[C@@](O)(C(=O)OC)[C@H](OC(C)=O)[C@]5(CC)C=CCN6CC[C@]43[C@@H]65)C2)C1,T/C,"endpoint: mean tumor weight (est.), dose: 0.05 mg/kg/injection, schedule: Q01DX009 (ip), vehicle: water, higher = larger tumour",57 % of control
same,T/C,"endpoint: mean tumor weight (est.), dose: 0.08 mg/kg/injection, schedule: Q01DX009 (ip), vehicle: water, higher = larger tumour",99 % of control
same,T/C,"endpoint: mean tumor weight (est.), dose: 0.14 mg/kg/injection, schedule: Q01DX009 (ip), vehicle: water, higher = larger tumour",69 % of control
same,T/C,"endpoint: mean tumor weight (est.), dose: 0.23 mg/kg/injection, schedule: Q01DX009 (ip), vehicle: water, higher = larger tumour",55 % of control
same,T/C,"endpoint: mean tumor weight, dose: 0.12 mg/kg/injection, schedule: Q01DX011 (ip), vehicle: water, higher = larger tumour",116 % of control
same,T/C,"endpoint: mean tumor weight, dose: 0.14 mg/kg/injection, schedule: Q01DX009 (ip), vehicle: water, higher = larger tumour",46 % of control
same,T/C,"endpoint: mean tumor weight, dose: 0.23 mg/kg/injection, schedule: Q01DX009 (ip), vehicle: water, higher = larger tumour",49 % of control
same,T/C,"endpoint: mean tumor weight, dose: 0.25 mg/kg/injection, schedule: Q01DX011 (ip), vehicle: water, higher = larger tumour",105 % of control
same,T/C,"endpoint: median survival time, dose: 0.05 mg/kg/injection, schedule: Q01DX004 (ip), vehicle: water, higher = longer survival",107 % of control
same,T/C,"endpoint: median survival time, dose: 0.05 mg/kg/injection, schedule: Q09DX009 (ip), vehicle: water, higher = longer survival",92 % of control
same,T/C,"endpoint: median survival time, dose: 0.06 mg/kg/injection, schedule: Q01DX011 (ip), vehicle: water, higher = longer survival",102 % of control and 104 % of control
same,T/C,"endpoint: median survival time, dose: 0.08 mg/kg/injection, schedule: Q01DX004 (ip), vehicle: water, higher = longer survival",110 % of control
same,T/C,"endpoint: median survival time, dose: 0.08 mg/kg/injection, schedule: Q09DX009 (ip), vehicle: water, higher = longer survival",113 % of control
same,T/C,"endpoint: median survival time, dose: 0.12 mg/kg/injection, schedule: Q01DX011 (ip), vehicle: water, higher = longer survival",92 % of control and 123 % of control
same,T/C,"endpoint: median survival time, dose: 0.14 mg/kg/injection, schedule: Q01DX004 (ip), vehicle: water, higher = longer survival",98 % of control
same,T/C,"endpoint: median survival time, dose: 0.14 mg/kg/injection, schedule: Q01DX009 (ip), vehicle: none, higher = longer survival",158 % of control
same,T/C,"endpoint: median survival time, dose: 0.23 mg/kg/injection, schedule: Q01DX004 (ip), vehicle: water, higher = longer survival",81 % of control
same,T/C,"endpoint: median survival time, dose: 0.23 mg/kg/injection, schedule: Q01DX009 (ip), vehicle: none, higher = longer survival",121 % of control
same,T/C,"endpoint: median survival time, dose: 0.23 mg/kg/injection, schedule: Q01DX009 (ip), vehicle: water, higher = longer survival",123 % of control
same,T/C,"endpoint: median survival time, dose: 0.25 mg/kg/injection, schedule: Q01DX011 (ip), vehicle: water, higher = longer survival",105 % of control
same,T/C,"endpoint: median survival time, dose: 0.39 mg/kg/injection, schedule: Q01DX004 (ip), vehicle: water, higher = longer survival",56 % of control
same,T/C,"endpoint: median survival time, dose: 0.39 mg/kg/injection, schedule: Q01DX009 (ip), vehicle: none, higher = longer survival",50 % of control
same,T/C,"endpoint: median survival time, dose: 0.39 mg/kg/injection, schedule: Q09DX009 (ip), vehicle: water, higher = longer survival",58 % of control
same,T/C,"endpoint: median survival time, dose: 0.65 mg/kg/injection, schedule: Q01DX009 (ip), vehicle: none, higher = longer survival",36 % of control
COC(=O)[CH](C[N+](=O)[O-])[Hg][Cl] (configuration not stated),T/C,"endpoint: mean tumor weight (est.), dose: 3.12 mg/kg/injection, schedule: Q01DX011 (ip), vehicle: saline, higher = larger tumour",79 % of control
same,T/C,"endpoint: mean tumor weight (est.), dose: 6.25 mg/kg/injection, schedule: Q01DX011 (ip), vehicle: saline, higher = larger tumour",69 % of control
same,T/C,"endpoint: mean tumor weight (est.), dose: 12.5 mg/kg/injection, schedule: Q01DX011 (ip), vehicle: saline, higher = larger tumour",71 % of control
same,T/C,"endpoint: median survival time, dose: 3.12 mg/kg/injection, schedule: Q01DX011 (ip), vehicle: saline, higher = longer survival",107 % of control
same,T/C,"endpoint: median survival time, dose: 6.25 mg/kg/injection, schedule: Q01DX011 (ip), vehicle: saline, higher = longer survival",115 % of control
same,T/C,"endpoint: median survival time, dose: 12.5 mg/kg/injection, schedule: Q01DX011 (ip), vehicle: saline, higher = longer survival",88 % of control
CC(=O)OC(C1CO1)C(OC(C)=O)C1CO1 (configuration not stated),T/C,"endpoint: median survival time, dose: 5.0 mg/kg/injection, schedule: Q01DX011 (ip), vehicle: saline, higher = longer survival",105 % of control
same,T/C,"endpoint: median survival time, dose: 10.0 mg/kg/injection, schedule: Q01DX011 (ip), vehicle: saline, higher = longer survival",121 % of control

# Source: PubChem BioAssay AID272 (DTP/NCI, 2004)
